From patent US11782064B2, “Methods for simultaneous measurement of multiple biological signals from spectrally identical fluorescent reporters” (Massachusetts Institute of Technology, priority 2019, dated 2023)

Tested on: cultured mouse hippocampal neurons
Assay: Multiplexed imaging of four or five reporters under forskolin, PMA or DHPG
Format: cell-based
Protocol: Live neuron imaging was performed on a spinning disk confocal microscope (a Yokogawa® CSU-W1 Confocal Scanner Unit on a Nikon® Eclipse T1 microscope) equipped with a 40×1.15 NA water immersion objective (Nikon® MRD77410) and a Zyla® PLUS 4.2 Megapixel camera controlled by NIS-Elements® AR software. The filter set for GFP was used for imaging GFP intensity-based reporters (GCaMP6f and cAMPr), and the filter set for GFP and the 405 nm excitation filter was used for imaging 488 nm/405 nm excitation ratiometric reporters (ExRaiAKAR and ExRaiCKAR). The filter set for RFP was used for imaging RFP intensity-based reporters (RAB_EKARev). For electrophysiological characterizations of GCaMP6f and S1-GCaMP6f (FIGS. 8D-G, 9A-Q), neurons were recorded in the GFP emission channel at a single focal plane at 20 milliseconds per frame (50 Hz). In the characterization and spatially multiplexed imaging experiments in FIGS. 9R-V, 10D-10G, 10M-10O, neurons were recorded in the GFP emission channel at a single focal plane at 50 milliseconds per frame (20 Hz). […]

| Structure (SMILES) | signaling activities induced in neurons (100 μM DHPG for 3 minutes) | signaling activities induced in neurons (100 ng/mL PMA for 3 minutes) |
| --- | --- | --- |
| N[C@H](C(=O)O)c1cc(O)cc(O)c1 [DHPG, (S)-3,5-Dihydroxyphenylglycine] | produced increases in cAMP, PKA, PKC, and ERK levels |  |
| CCCCCCCCCCCCCC(=O)O[C@@H]1[C@@H](C)[C@@]2(O)[C@@H](C=C(CO)C[C@]3(O)C(=O)C(C)=C[C@@H]23)[C@@H]2C(C)(C)[C@]12OC(C)=O [PMA, phorbol 12-myristate 13-acetate] |  | increases of PKC activity |
